Reference: US7060486B2, “Inhibition of sulfate-reducing-bacteria-mediated degradation using bacteria which secrete antimicrobials” (priority 1998, dated 2006)
“Also recorded” adds a separate entry of the source. Bridge positions count the residues as written; N and C are the ends. Square brackets hold non-standard residues; d marks the D form. Peptide text beside a SMILES is read from it. * marks the point of attachment. X1 = CC[C@H](C)CCCCC(=O)*; Dab = NCC[C@H](N)C(=O)O

Key:
D. vulgaris (ATCC 29579) = experiment: SRB inhibitory assay: viability after one-hour exposure, MPN technique; assay type: cell-based; settings: one-hour exposure
Description: (§1) D. vulgaris (ATCC 29579) and D. gigas (ATCC 19364) were obtained from the American Type Culture Collection and cultivated in 15 mL screwcap tubes with 10 mL of modified Baar's medium (ATCC medium 1249) supplemented with 100 μL each of the oxygen-scavengers 4% sodium sulfide and Oxyrase (Oxyrase Inc., Mansfeld, Ohio). Initial cultures were grown from −85° C. glycerol stocks; all subsequent cultures were grown with a 3% inoculum from the initial culture maintained at 30° C. without shaking. […] SRB were also cultured periodically in the presence of 0.1% ferrous ammonium sulfate, and the presence of these sulfate-reducers was confirmed by the detection of black iron sulfide in the culture tubes. The desulfoviridin assay was also performed after each MPN assay to confirm the presence of D. vulgaris or D. gigas by its red color under UV light due to the release of the chromophore of the pignment desulfoviridin. (Postgate, 1984).
(§2) For determining the viability indices (Romeo, et al., 1988) of SRB, a late-exponential phase culture (O.D600 0.16 to 0.19 which corresponded to an initial cell number of 5–9×10^4 cells/mL) was exposed to various concentrations of antimicrobials for 1 hour at 30° C. One mL of cells was harvested, washed once in fresh modified Baar's medium to remove cellular debris, and resuspended in 1 mL of fresh modified Baar's medium supplemented with 10 μL each of Oxyrase (Oxyrase Inc., Mansfeld, Ohio) and 4% sodium sulphide. Aliquots of 450 μL were dispensed in 500 μL sterile eppendorf tubes and appropriate amounts of antimicrobials added and incubated at 30° C. The effectiveness of treatment was determined by the multiple-tube most-probable-number (MPN) fermentation technique. (Anonymous. Multiple-tube fermentation technique for members of the coliform group, pp. 9–45 to 9–51. In A. E. Greenberg, L. S. Clesceri, and A. D. Eaton (eds.), Standard Methods for the Examination of Water and Wastewater, 18 ed. American Public Health Association, American Water Works Association, and Water Pollution Control Federation, New York (1992)) (hereafter, Greenberg, 1992).
(§3) The MPN test for enumerating SRB was performed in three 12 mL tubes with a 1000 μL inoculum of SRB, three 12 mL tubes with a 500 μL inoculum, and three 12 mL tubes with a 100 μL inoculum. All nine tubes contained a final volume of 10 mL of modified Baar's medium supplemented with 100 μL each of 4% sodium sulfide and Oxyrase (Oxyrase Inc., Mansfeld, Ohio). The tubes were monitored for 72 hours to determine the number of tubes that were positive for growth. Growth was determined by the increase in culture turbidity, and the MPN index/mL was calculated using the Thomas formula. (Greenberg 1992).

D. vulgaris [1] = settings: literature (Saleh 1964/Postgate 1984; Odom and Singleton 1993), suspension cultures; cited from earlier work
[2] = tested on: SRB (D. vulgaris) on SAE 1018 mild steel; experiment: Continuous reactor with SAE 1018 mild steel and SRB, electrochemical impedance spectroscopy
Source text: (§4) A continuous reactor was used to develop biofilms on metal surfaces as previously described (Jayaraman et al., 1997c). Electrochemical impedance spectroscopy (EIS) was used to obtain impedance data in at least duplicate experiments using a Solarton-Schlumberger electrochemical measurement unit (SI 1280, Schlumberger Technical Instruments Division, San Jose, Calif.) interfaced to a Macintosh computer (PowerMac 7100/80, Apple Computers, Cupertino, Calif.) running EISIS electrochemical experimentation software (University of California, Irvine) (THALES, a similar commercial software, can also be used). The open-circuit potential (OCP) was measured as the potential between the metal specimen and the reference electrode (Ag/AgCl), and the polarization resistance was determined as the dc limit of the impedance using the ANALEIS software developed by Mansfeld et al. (ASTM Special Technical Protocol 1154:186 (1992)). Continuous culture corrosion rates were estimated from the experimental polarization resistance Rp based on the Stern-Geary equation Rp=B/Icorr, where B is a parameter depending on the Tafel slopes and icorr is the corrosion current density which can be converted into a corrosion rate using Faraday's law (Mansfeld, F., The polarization resistance technique for measuring corrosion currents, In Fontana, M. G., Staehle, R. W. (ed.), Advances in Corrosion Science and Technology, Plenum Press, New York (1976)).
A 3% (vol/vol) SRB inoculum (culture age 24–48 hours) was added to the reactor after 3 to 5 days of aerobic biofilm development. […] All antimicrobials were simultaneously added to the nutrient feed and the reactor at appropriate concentrations.

P. fragi K = experiment: Growth of P. fragi K in overnight suspension cultures with antimicrobials; assay type: cell-based; settings: 100 μg/mL, overnight suspension culture
D. vulgaris [3] = experiment: Susceptibility of SRB cultures to antibiotics and inorganics; assay type: cell-based
Description: (§5) D. vulgaris and D. gigas were incubated in the presence of various antimicrobial peptides, and their viability after one-hour exposure was determined. […] D. gigas was inhibited by anthraquinone at 100 μg/mL (Cooling et al., 1996), and both SRB were inhibited by sodium molybdate at 100 μg/mL. This is similar to the observation of Saleh, et al., 1964, who surveyed nearly 200 compounds for their SRB-inhibitory activity and noted that SRB show a high degree of resistance to inhibitory compounds (Id.).

[4] = tested on: SRB (D. vulgaris) on 304 stainless steel; experiment: Continuous reactor with 304 stainless steel and SRB, electrochemical impedance spectroscopy
Description: Batch culture corrosion experiments using SAE 1018 mild steel coupons (2.5 cm diameter, 1.2 mm thick) were performed in triplicates in 250 mL Erlenmeyer flasks at 30° C. without shaking as described previously (Jayaraman et al., 1997a). A continuous reactor (Jayaraman et al., 1997c) was also used to develop biofilms on 304 stainless steel and monitor corrosion using electrochemical impedance spectroscopy (EIS) in a minimum of two independent reactors using a Solarton-Schlumberger electrochemical measurement unit (SI 1280, Schlumberger Technical Instruments Division, San Jose, Calif.) interfaced to a Macintosh computer (PowerMac 7100/80, Apple Computers, Cupertino, Calif.) running EISIS electrochemical experimentation software (University of California, Irvine) (similar commercial software, THALES, can also be used). The open circuit potential (OCP) was measured as the potential between the metal specimen and a Ag/AgCl reference electrode, and the polarization resistance (Rp) was determined as the low-frequency value of the impedance (where the imaginary part of the impedance was zero or negligible). Continuous culture corrosion rates were estimated as the inverse of the polarization resistance (Macdonald, D. D. and M. C. H. McCubre, Applications of impedance spectroscopy, p. 262–267. In J. R. Macdonald (ed.), Impedance spectroscopy: Emphasizing solid materials and systems, John Wiley & Sons, New York (1987); Stem, M., Journal of Electrochemical Society, 105(11):638–647 (1958)).
as §4, with “Continuous culture corrosion rates were estimated from the experimental polarization resistance Rp based on the Stern-Geary equation Rp=B/Icorr, where B is a parameter depending on the Tafel slopes and icorr is the corrosion current density which can be converted into a corrosion rate using Faraday's law (Mansfeld, F., The polarization resistance technique for measuring corrosion currents, In Fontana, M. G., Staehle, R. W. (ed.), Advances in Corrosion Science and Technology, Plenum Press, New York (1976)).” left out

D. gigas = experiment: Susceptibility of SRB cultures to antibiotics and inorganics; assay type: cell-based
Description: as §5

B. subtilis BE1500 = experiment: Susceptibility of host strains to purified antimicrobials (plate counts); assay type: cell-based
Description: (§6) To determine the susceptibility of the hosts B. subtilis BE1500 and B. polymyxa to the expressed antimicrobials, these strains were grown from a single colony in 25 mL of LB medium with shaking at 37° C. to an O.D600 of 0.40–0.45. One mL aliquots were collected, washed with fresh LB medium and resuspended in 100 μL fresh LB medium in sterile eppendorf tubes. The antimicrobials indolicidin and bactenecin were added (50–100 μg/mL) and the tubes were incubated at 30° C. for one hour without shaking. Appropriate dilutions were spread on LB agar plates and incubated overnight at 37° C. to determine the extent of survival. The results were confirmed by performing two independent experiments.

B. polymyxa 10401 = experiment: as above; assay type: cell-based; settings: 50 μg/mL, one hour exposure at 30° C.
Description: as §6

B. subtilis WB600 = experiment: as above; assay type: cell-based; settings: 50 μg/mL, one hour exposure at 30° C.
Escherichia coli = settings: 100 μg/mL; cited from earlier work
D. gigas (ATCC 19364) = experiment: SRB inhibitory assay: viability after one-hour exposure, MPN technique; assay type: cell-based; settings: 100 μg/mL, one-hour exposure
Description: as §1, §2, §3

[5] = 100 μg/mL added to P. fragi K biofilm 24 hours before D. vulgaris
[6] = 100 μg/mL added to P. fragi K biofilm before D. vulgaris

CC[C@H](C)[C@H](N)C(=O)N[C@@H](CC(C)C)C(=O)N1CCC[C@H]1C(=O)N[C@@H](Cc1c[nH]c2ccccc12)C(=O)N[C@@H](CCCCN)C(=O)N[C@@H](Cc1c[nH]c2ccccc12)C(=O)N1CCC[C@H]1C(=O)N[C@@H](Cc1c[nH]c2ccccc12)C(=O)N[C@@H](Cc1c[nH]c2ccccc12)C(=O)N1CCC[C@H]1C(=O)N[C@@H](Cc1c[nH]c2ccccc12)C(=O)N[C@@H](CCCN=C(N)N)C(=O)N[C@@H](CCCN=C(N)N)C(N)=O [Ind-NH2, indolicidin]
reduction of viability (D. vulgaris (ATCC 29579); 25 μg/mL, late-exponential-phase culture): 99.3%

CC1(C)S[C@@H]2[C@H](NC(=O)[C@H](N)c3ccccc3)C(=O)N2[C@H]1C(=O)O [ampicillin]
concentration that inhibits D. vulgaris (D. vulgaris [1]): 1 µg/mL
effect on D. vulgaris, in words [2, 5]: completely inhibited
time after D. vulgaris addition without change / increase in Rp [2, 6]: ≥ 100 h
effect on SRB, in words ([2]; antimicrobial added after SRB growth on mild steel): did not change Rp; also recorded: no inhibition of SRB
time to onset of SRB-induced corrosion after ampicillin containing medium was discontinued ([2]; mild steel reactors): ≤ 36 h
growth of P. fragi K, in words (P. fragi K): grew to saturation
concentration that inhibits the strain (D. vulgaris [3]): 20 µg/mL
effect on D. vulgaris, in words [4, 5]: completely inhibited
time after D. vulgaris addition without change in impedance spectra and Rp [4, 6]: ≥ 100 h
effect on SRB, in words ([4]; antimicrobial added to dual-culture reactor after SRB, ampicillin 200 μg/mL, chloramphenicol 100 μg/mL, ammonium molybdate 200 μg/mL): SRB had not been killed

O=C1c2ccccc2C(=O)c2ccccc21 [anthraquinone]
concentration that inhibits the strain (D. gigas): 100 µg/mL

CC[C@H](C)[C@@H]1NC(=O)[C@H](CCCNC(=N)N)NC(=O)[C@@H](NC(=O)[C@H](CC(C)C)NC(=O)[C@@H](N)CCCNC(=N)N)CSSC[C@@H](C(=O)N[C@@H](CCCNC(=N)N)C(=O)O)NC(=O)[C@H](C(C)C)NC(=O)[C@H](CCCNC(=N)N)NC(=O)[C@H]([C@@H](C)CC)NC(=O)[C@H](C(C)C)NC(=O)[C@H](C(C)C)NC1=O [bactenecin] (H-RLCRIVVIRVCR-OH; disulfide 3-11; N-terminus and C-terminus assumed)
factor by which the strain is more resistant to bactenecin than to indolicidin (B. subtilis BE1500): 60
Fold-reduction in cell number (B. subtilis BE1500; 50 μg/mL, one hour exposure at 30° C.): 100
Fold-reduction in cell number (B. polymyxa 10401): 2
Fold-reduction in cell number (B. subtilis WB600): 400
inhibition (Escherichia coli): 95%

O=C(N[C@H](CO)[C@H](O)c1ccc([N+](=O)[O-])cc1)C(Cl)Cl [chloramphenicol]
concentration that inhibits D. vulgaris (D. vulgaris [1]): 3 µg/mL
concentration that inhibits the strain (D. vulgaris [3]): 20 µg/mL

CC[C@H](C)CCCCC(=O)N[C@@H](CCN)C(=O)N[C@H](C(=O)N[C@@H](CCN)C(=O)N[C@H]1CCNC(=O)[C@H]([C@@H](C)O)NC(=O)[C@H](CCN)NC(=O)[C@H](CCN)NC(=O)[C@H](CC(C)C)NC(=O)[C@@H](Cc2ccccc2)NC(=O)[C@H](CCN)NC1=O)[C@@H](C)O [polymyxin B] (X1-[Dab]T[Dab][Dab][Dab][dF]L[Dab][Dab]T; lactam 4-C (inferred); N-terminus assumed)
concentration that inhibits D. vulgaris (D. vulgaris [1]): 100 µg/mL
reduction of viability (D. vulgaris (ATCC 29579); 100 μg/mL): approximately 90%
reduction of viability (D. gigas (ATCC 19364)): approximately 90%

[Na+].[Na+].[O]=[Mo](=[O])([O-])[O-] [sodium molybdate]
concentration that inhibits the strain (D. vulgaris [3]): 100 µg/mL
concentration that inhibits the strain (D. gigas): 100 µg/mL

gramicidin D
reduction of viability (D. vulgaris (ATCC 29579); 100 μg/mL): approximately 90%
reduction of viability (D. gigas (ATCC 19364)): approximately 90%
